Laboratory results taken from ChEMBL document CHEMBL6074649, “An insight into recent developments in imidazole based heterocyclic compounds as anticancer agents: Synthesis, SARs, and mechanism of actions” (Eur J Med Chem, 2024).
pIC50: −log10 of the molar value. ≈ marks a conversion by molar mass, not a printed value.

How the values were obtained:
[1] = Anticancer activity against human UKF-NB-3 cells by MTT assay; type: functional, cell-based
NCI-H1299 = assay: Anticancer activity against human NCI-H1299 cells by MTT assay; type: functional, cell-based
A549 [2] = assay: Anticancer activity against human A549 cells by MTT assay; type: functional, cell-based
MCF7 [3] = assay: Cytotoxicity against human MCF7 cells assessed as reduction in cell growth measured for 24 hrs by MTT assay; type: functional, cell-based; conditions: MCF7, 24 h
HepG2 [4] = assay: Cytotoxicity against human HepG2 cells assessed as reduction in cell growth incubated for 24 hrs by MTT assay; type: functional, cell-based; conditions: HepG2, 24 h
Caco-2 = assay: Cytotoxicity against human Caco-2 cells assessed as reduction in cell growth measured for 24 hrs by MTT assay; type: functional, cell-based; conditions: Caco-2, 24 h
K562 = assay: Antiproliferative activity against human K562 cells assessed as reduction in cell growth incubated for 48 hrs by MTT assay; type: functional, cell-based; conditions: K562, 48 h
HeLa [5] = assay: Antiproliferative activity against human HeLa cells assessed as reduction in cell growth incubated for 48 hrs by MTT assay; type: functional, cell-based
HepG2 [6] = assay: Cytotoxicity against human HepG2 cells assessed as reduction in cell growth incubated for 24 hrs by SRB assay; type: functional, cell-based; conditions: HepG2, 24 h
MCF7 [7] = assay: Cytotoxicity against human MCF7 cells assessed as reduction in cell growth incubated for 24 hrs by SRB assay; type: functional, cell-based; conditions: MCF7, 24 h
A2780 = assay: Cytotoxicity against human A2780 cells assessed as reduction in cell viability by MTT assay; type: functional, cell-based
A549 [8] = assay: Cytotoxicity against human A549 cells assessed as reduction in cell viability by MTT assay; type: functional, cell-based
COLO 205 = assay: Cytotoxicity against human COLO 205 cells assessed as reduction in cell viability by MTT assay; type: functional, cell-based
MCF7 [9] = assay: Cytotoxicity against human MCF7 cells assessed as reduction in cell viability by MTT assay; type: functional, cell-based
[10] = Antiproliferative activity against human MRC5 cells assessed as reduction in cell viability incubated for 24 hrs by MTT assay; type: toxicity, cell-based
AGS = assay: Antiproliferative activity against human AGS cells assessed as reduction in cell viability incubated for 24 hrs by MTT assay; type: functional, cell-based
A549 [11] = assay: Antiproliferative activity against human A549 cells assessed as reduction in cell viability incubated for 24 hrs by MTT assay; type: functional, cell-based; conditions: A549, 24 h
[12] = Antiproliferative activity against human HepG2 cells assessed as reduction in cell growth by MTT assay; type: toxicity, cell-based
MDA-MB-231 = assay: Antiproliferative activity against human MDA-MB-231 cells assessed as reduction in cell growth by MTT assay; type: functional, cell-based
L02 = assay: Antiproliferative activity against human LO2 cells assessed as reduction in cell growth by MTT assay; type: functional, cell-based
[13] = Antiproliferative activity against human MCF-10A cells assessed as reduction in cell growth by MTT assay; type: toxicity, cell-based
MCF7 [14] = assay: Anticancer activity against human MCF7 cells at 500 uM relative to control; type: functional
MCF7 [15] = assay: Anticancer activity against human MCF7 cells at 1.9 uM relative to control; type: functional
MCF7 [16] = assay: Anticancer activity against human MCF7 cells at 15.6 uM relative to control; type: functional
MCF7 [17] = assay: Anticancer activity against human MCF7 cells at 31.25 uM relative to control; type: functional
MCF7 [18] = assay: Anticancer activity against human MCF7 cells at 62.5 uM relative to control; type: functional
MCF7 [19] = assay: Anticancer activity against human MCF7 cells at 1.5 uM relative to control; type: functional
MCF7 [20] = assay: Anticancer activity against human MCF7 cells at 7.8 uM relative to control; type: functional
MCF7 [21] = assay: Anticancer activity against human MCF7 cells at 3.9 uM relative to control; type: functional
MCF7 [22] = assay: Anticancer activity against human MCF7 cells at 125 uM relative to control; type: functional
A549 [23] = assay: Antiproliferative activity against human A549 cells assessed as reduction in cell growth incubated for 24 hrs by MTT assay; type: functional, cell-based; conditions: A549, 24 h
[24] = Antiproliferative activity against human MCF7/MX cells assessed as reduction in cell growth incubated for 24 hrs by MTT assay; type: functional, cell-based
MCF7 [25] = assay: Antiproliferative activity against human MCF7 cells assessed as reduction in cell growth incubated for 24 hrs by MTT assay; type: functional, cell-based; conditions: MCF7, 24 h
HepG2 [26] = assay: Antiproliferative activity against human HepG2 cells assessed as reduction in cell growth incubated for 24 hrs by MTT assay; type: functional, cell-based; conditions: HepG2, 24 h
IMR-32 = assay: Anticancer activity against human IMR-32 cells assessed as reduction in cell viability incubated for 48 hrs by MTT assay; type: functional, cell-based; conditions: IMR-32, 48 h
HeLa [27] = assay: Anticancer activity against human HeLa cells assessed as reduction in cell viability incubated for 48 hrs by MTT assay; type: functional, cell-based
A549 [28] = assay: Anticancer activity against human A549 cells assessed as reduction in cell viability incubated for 48 hrs by MTT assay; type: functional, cell-based; conditions: A549, 48 h
[29] = Anticancer activity against HEK293 cells assessed as reduction in cell viability incubated for 48 hrs by MTT assay; type: toxicity, cell-based; conditions: human
[30] = Growth inhibition of human Non-small cell lung cancer cell line; type: functional
CNS carcinoma cell = assay: Growth inhibition of human CNS carcinoma cell; type: functional
[31] = Growth inhibition of human Colon cancer cell line; type: functional
[32] = Growth inhibition of human Melanoma cell; type: functional
Leukemia cell = assay: Growth inhibition of human Leukemia cell; type: functional

With O=C(Cn1cnc(-c2ccccc2)c1-c1ccccc1)NCCOC(=O)C12CC3CC(CC(C3)C1)C2 the IC50 [1] was 8.53 µg/mL (≈ 17.6 µM), the IC50 (NCI-H1299) was over 100 µg/mL and the IC50 (A549 [2]) was 43.2 µg/mL (≈ 89.3 µM).

Work on c1ccc(-c2nc(-c3ccc(OCc4c(COc5ccc(-c6nc(-c7ccccc7)c(-c7ccccc7)[nH]6)cc5)c(COc5ccc(-c6nc(-c7ccccc7)c(-c7ccccc7)[nH]6)cc5)c(COc5ccc(-c6nc(-c7ccccc7)c(-c7ccccc7)[nH]6)cc5)c(COc5ccc(-c6nc(-c7ccccc7)c(-c7ccccc7)[nH]6)cc5)c4COc4ccc(-c5nc(-c6ccccc6)c(-c6ccccc6)[nH]5)cc4)cc3)[nH]c2-c2ccccc2)cc1 yielded a pIC50 (MCF7 [3]) of 4.45, a pIC50 (HepG2 [4]) of 5.01 and a pIC50 (Caco-2) of 4.49.

Molecule COc1cc([C@@H]2c3cc4c(cc3[C@H](n3cnc(C)c3)[C@H]3COC(=O)[C@H]23)OCO4)cc(OC)c1OC has a pIC50 (K562) of 5.06 and a pIC50 (HeLa [5]) of 5.35.

For Cc1nc(S)n(-c2ccccc2)c1-c1cc(-c2ccc(-c3cc(-c4c(C)nc(S)n4-c4ccccc4)nc(N)c3C#N)cc2)c(C#N)c(N)n1, the IC50 (HepG2 [6]) was 6 µg/mL (≈ 8.71 µM) and the IC50 (MCF7 [7]) was 1.7 µg/mL (≈ 2.47 µM).

Molecule O=[N+]([O-])c1cccc(S(=O)(=O)n2ccnc2-c2ccon2)c1 has a pIC50 (A2780) of 6.20, a pIC50 (A549 [8]) of 5.94 and a pIC50 (COLO 205) of 5.72. The pIC50 (MCF7 [9]) was 5.99.

Work on Cn1ccnc1/C=C/C(=O)c1ccc(F)cc1 yielded an IC50 at 24 h [10] of over 100 µM, a pIC50 (AGS) of 4.53 and a pIC50 (A549 [11]) of under 4.00.

In the case of COc1ccc(C(=O)/C=C/c2nccn2C)cc1, the IC50 at 24 h [10] was 67.4 µM, the pIC50 (AGS) was 4.68 and the pIC50 (A549 [11]) was 4.21.

Molecule Clc1ncccc1-c1nc(-c2ccccc2)c(-c2ccccc2)[nH]1 has a pIC50 [12] of 4.71, a pIC50 (MDA-MB-231) of 4.62 and a pIC50 (L02) of under 4.30. For the same molecule, the pIC50 [13] was under 4.30.

For Fc1ccc(Cn2c(-c3ccc(Cl)cc3)nc(-c3ccccc3)c2-c2ccccc2)cc1, the inhibition at 500 µM (MCF7 [14]) was 12%, the inhibition at 1.9 µM (MCF7 [15]) was 65% and the inhibition at 15.6 µM (MCF7 [16]) was 55%. The inhibition at 31.25 µM (MCF7 [17]) was 39%, the inhibition at 62.5 µM (MCF7 [18]) was 30% and the inhibition at 1.5 µM (MCF7 [19]) was 88%. It also gave an inhibition at 7.8 µM (MCF7 [20]) of 63%, an inhibition at 3.9 µM (MCF7 [21]) of 78% and an inhibition at 125 µM (MCF7 [22]) of 24%.

Molecule COc1cc(OC)c(S(=O)(=O)n2ccnc2-c2ccon2)c(OC)c1 has a pIC50 (A2780) of 5.91, a pIC50 (A549 [8]) of 6.54 and a pIC50 (COLO 205) of 6.59. It also gave a pIC50 (MCF7 [9]) of 6.39.

For c1coc(-c2nc(-c3ccc(OCCCOc4ccc(-c5nc(-c6ccco6)c(-c6ccco6)[nH]5)cc4)cc3)[nH]c2-c2ccoc2)c1, the pIC50 (MCF7 [3]) was 4.23, the pIC50 (HepG2 [4]) was 5.09 and the pIC50 (Caco-2) was 3.49.

Molecule COc1ccc(-c2nc(-c3ccccc3)c(-c3ccccc3)n2Cc2ccc(F)cc2)cc1 has an inhibition at 500 µM (MCF7 [14]) of 13%, an inhibition at 1.9 µM (MCF7 [15]) of 88% and an inhibition at 15.6 µM (MCF7 [16]) of 65%. The inhibition at 31.25 µM (MCF7 [17]) was 54%, the inhibition at 62.5 µM (MCF7 [18]) was 41% and the inhibition at 1.5 µM (MCF7 [19]) was 82%. For the same molecule, the inhibition at 7.8 µM (MCF7 [20]) was 73%, the inhibition at 3.9 µM (MCF7 [21]) was 79% and the inhibition at 125 µM (MCF7 [22]) was 39%.

CCSc1nc(/C=C/C(=O)c2cc(OC)c(OC)c(OC)c2)cn1Cc1ccccc1 showed a pIC50 (A549 [23]) of 5.15, a pIC50 [24] of 4.69 and a pIC50 (MCF7 [25]) of 5.01. The pIC50 (HepG2 [26]) was 4.66.

Work on O=c1c(-c2nc(-c3ccc(Br)cc3)c(-c3ccc(Br)cc3)[nH]2)coc2ccccc12 yielded a pIC50 (IMR-32) of 4.53, a pIC50 (HeLa [27]) of 4.61 and a pIC50 (A549 [28]) of 4.57. For the same molecule, the IC50 at 48 h [29] was 82.3 µM.

Work on Brc1ccc(-c2nc(-c3c[nH]c4ccccc34)[nH]c2-c2ccc(Br)cc2)cc1 yielded a pIC50 (IMR-32) of 4.98, a pIC50 (HeLa [27]) of 4.95 and a pIC50 (A549 [28]) of 5.02. The IC50 at 48 h [29] was 98.5 µM.

For COc1cc([C@@H]2c3cc4c(cc3[C@@H](O[C@@H]3O[C@@H]5CO[C@@H](C)O[C@H]5[C@H](O)[C@H]3O)[C@H]3COC(=O)[C@H]23)OCO4)cc(OC)c1O [ETOPOSIDE], the pIC50 (A2780) was 5.88, the pIC50 (K562) was 5.22 and the pIC50 (COLO 205) was 6.89. It also gave a pIC50 (MCF7 [9]) of 5.68 and a pIC50 (HeLa [5]) of 5.52.

Oc1ccc(/C=C/c2cc(O)cc(O)c2)cc1 [RESVERATROL] showed a GI50 [30] of 61.7 µM, a GI50 (CNS carcinoma cell) of 70.8 µM and a GI50 [31] of 56 µM. For the same molecule, the GI50 [32] was 64.6 µM and the GI50 (Leukemia cell) was 15.9 µM.

In the case of CC[C@]1(O)C[C@@H]2CN(CCc3c([nH]c4ccccc34)[C@@](C(=O)OC)(c3cc4c(cc3OC)N(C)[C@H]3[C@@](O)(C(=O)OC)[C@H](OC(C)=O)[C@]5(CC)C=CCN6CC[C@]43[C@@H]65)C2)C1.O=S(=O)(O)O [VINBLASTINE SULFATE], the IC50 (HepG2 [6]) was 4.6 µg/mL and the IC50 (MCF7 [7]) was 5.7 µg/mL.
